Measurements as given in PubChem BioAssay AID1322 (NMMLSC, 2008).
Active and inactive are the calls of the source. How the calls were made is not given here.

Each compound was assayed against Bcl-2-like protein 1 (Homo sapiens) (UniProt Q07817) (assay: Bim-Bcl-XL interaction inhibitors, potency, dose response, biochemical, multiplexed, bead flow cytometry, human Bcl-XL (AID 1322; on inhibition: test concentration not given here)). Conditions: Bead-based flow cytometry, Bim peptide-Bcl-XL binding, MCF.
Chain of Bcl-2-like protein 1 (Homo sapiens) (Q07817 whole entry, looked up): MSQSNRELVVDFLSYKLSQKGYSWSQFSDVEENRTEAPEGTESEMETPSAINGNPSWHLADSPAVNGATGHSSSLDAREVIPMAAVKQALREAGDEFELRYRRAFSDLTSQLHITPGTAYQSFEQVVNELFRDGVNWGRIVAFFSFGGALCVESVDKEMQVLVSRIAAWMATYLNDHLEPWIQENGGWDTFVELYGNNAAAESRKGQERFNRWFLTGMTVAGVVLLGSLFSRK

Structure (SMILES)	outcome	EC50
O=C(N/N=C/c1cccnc1)c1cccc(S(=O)(=O)N2CCCC2)c1	inactive	
CCOc1cc(CNc2ccc(N3CCCCC3)cc2)cc(Br)c1OCC(=O)NC(C)(C)C	inactive	
Cc1ccc(NN2C(=O)C=CC2=O)cc1	inactive	
CCOC(=O)C1(Cc2cccc(OC)c2)CCN(Cc2cccc(OC)c2OC)CC1	inactive	
Cc1ccc(NC(=O)c2cc(S(=O)(=O)NCCC3=CCCCC3)ccc2F)cc1F	inactive	
CCOc1ccccc1CNc1ccc(O)cc1	inactive	
CCOC(=O)c1nc(Nc2ccc(N3CCC(C)CC3)cc2)c2ccccc2n1	inactive	
COc1cccc(/C=N/Nc2nn3cnnc3c3ccccc23)c1O		inactive
O=C(c1cccc(Br)c1)N1CCN(c2cnn(-c3ccccc3)c(=O)c2Cl)CC1	inactive	
COc1cc(/C=N/Nc2nn3cnnc3c3ccccc23)ccc1O		inactive
CC(NCc1ccc(-c2ccccc2)cc1)C(O)c1ccccc1 (stereo not given)	inactive	
O=C(O)/C=C/C(=O)NNC(=O)c1ccc(Br)cc1	inactive	
CCOC(=O)CSC1=NC(=O)/C(=C/c2ccc(Br)cc2)S1	inactive	
O=C1c2ccccc2C(=O)N1c1cccc2cccnc12	inactive	
Cn1c(N)c(C(=O)COC(=O)c2cncc(Br)c2)c(=O)n(C)c1=O	inactive	
O=[N+]([O-])c1ccc2[nH]nc(-c3ccccc3)c2c1	inactive	
CCc1cccc(CC)c1NC(=S)N1CCn2cccc2C1c1cccnc1 (stereo not given)	inactive	
O=C(C1=NN[C@@H]2C(=O)N(c3ccccc3C(F)(F)F)C(=O)[C@H]12)c1ccc2ccccc2n1	inactive	
O=C(c1ccccc1)c1ccc2nc(-c3ccco3)c(-c3ccco3)nc2c1	inactive	

Same assay, conditions: Bead-based flow cytometry, Bim peptide-Bcl-XL binding, MCF

Structure (SMILES)	inhibition
CCOc1cccc(CNc2ccc(O)cc2)c1OCc1ccc(Cl)cc1	inactive
CCN(CC)c1ccc(NC(=O)COc2ccccc2C)cc1S(=O)(=O)Nc1ccccc1OC	inactive
O=C(Nc1ccccc1)c1ccc2nc(-c3ccco3)c(-c3ccco3)nc2c1	inactive
O=C(C1=NN(c2ccccc2)C2C(=O)N(c3ccccc3)C(=O)C12)c1ccccc1 (stereo not given)	inactive
COc1ccc(OC)c(NC(=O)COC(=O)c2cc3c(s2)CCC3)c1	inactive
C=CCSc1nc(N)c2c(C)c(C)sc2n1	inactive
CC(=O)NC1=C(NC2CCS(=O)(=O)C2)C(=O)c2ccccc2C1=O (stereo not given)	inactive
Cc1sc2nc(C(C)C)nc(SCC(=O)N3c4ccccc4CC3C)c2c1C (stereo not given)	inactive
Cc1c(Cc2ccccc2)sc(N)c1C(N)=O	inactive
O=C(NCCCO)Nc1ccc2nc(-c3ccco3)c(-c3ccco3)nc2c1	inactive
COc1ccc(NC(=O)/C(C#N)=C/c2c(C)nn(-c3ccc(F)cc3)c2Cl)cc1Cl	inactive
CCc1nnc(NS(=O)(=O)c2ccc(N=CC3=C(O)CC(C)(C)CC3=O)cc2)s1	inactive
Cc1ccc(N=Cc2c(O)n(-c3ccc4c(c3)OCO4)c(=O)c3ccccc23)cc1	inactive
COc1ccc(/C=C(/C(=O)c2cccs2)N2C=CC=CC2=C(C#N)C#N)cc1	inactive
Cc1ccc2c(C)c(C(=O)Nc3nnc(C)s3)oc2c1	inactive
COc1cc(N=c2ssnc2Cl)cc(OC)c1	inactive
CC(C)COC(=O)/C(C#N)=C/c1cn(Cc2ccccc2)c2ccccc12	inactive
O=C(NCCO)c1ccc2nc(-c3ccco3)c(-c3ccco3)nc2c1	inactive
CCNC(=S)Nc1cc(OCC)c(NC(=O)c2cccs2)cc1OCC	inactive
N#C/C(=C(/O)CN1CCN(c2ccccc2F)CC1)c1nc(-c2ccccc2)cs1	inactive
Cn1c(=O)c2c(nc(NCCO)n2CCc2ccccc2)n(C)c1=O	inactive
CN(Cc1ccccc1)c1nc2c(c(=O)[nH]c(=O)n2C)n1C	inactive

Structure (SMILES)	inhibition
COC(=O)CSc1ncnc2c1sc1nc(-c3ccco3)c3c(c12)CC(C)(C)OC3	inactive
Cc1ccc(-c2nc3c(c(=O)[nH]c(=O)n3Cc3ccccc3)n2Cc2ccccc2)o1	inactive
NC(=O)c1c(N)sc2c1CCCCC2	inactive
O=C1NC(=O)C2(Cc3c(nc4ccccn4c3=O)N3CCCCCC32)C(=O)N1Cc1ccccc1 (stereo not given)	inactive
Cc1ccc(/C=C/C(=O)c2ccccc(=O)c2O)c(C)c1	inactive
O=[N+]([O-])c1ccc(N/N=C/c2ccc(O)c(O)c2O)c(S(=O)(=O)N2CCOCC2)c1	inactive
CCC(CC)C(=O)Nc1cccc(S(=O)(=O)c2cccc(NC(=O)C(CC)CC)c2)c1	inactive
CCN(CC)c1nc(N)nc(N(c2ccccc2)c2ccccc2)n1	inactive
Cc1nn(-c2ccc(Cl)cc2)c(Cl)c1/C=C(\C#N)C(N)=O	inactive
C1=CC2c3ccccc3NC(c3ccncc3)C2C1 (stereo not given)	inactive
COc1cc(N=c2ssnc2Cl)cc(OC)c1OC	inactive
COC(=O)c1cc(OC)c(OC)cc1NC(=O)Nc1cccc(C(C)=O)c1	inactive
Cc1cc(-c2nn(-c3ccccc3)cc2/C=C2\SC(N)=NC2=O)ccc1OC(C)C	inactive
O=C(Nc1cccc(-c2ccc3nncn3n2)c1)c1ccco1	inactive
COc1cc(/C=C2\SC(=S)NC2=O)ccc1OS(=O)(=O)c1ccccc1	inactive
Cc1cc(N2CCN(C)CC2)nc2ccc(NC(=S)N3CCN(c4cccc(Cl)c4)CC3)cc12	inactive
CNc1ccccc(C(=O)/C=C/c2ccccc2OC)c1=O	inactive
CCOc1ccc2nc(SCC(=O)N3c4ccccc4Sc4ccccc43)c(C#N)cc2c1	inactive
O=C(Cc1ccccc1)OCCNC(=O)c1cccnc1	inactive
c1ccc(-c2nnc(OCCN3CCOCC3)c3ccccc23)cc1	inactive
Cc1cc(N)ccc1N1CCCC1	inactive
CCn1cc(C=C2C(=O)c3ccccc3C2=O)c2ccccc21	inactive

Structure (SMILES)	inhibition
N#Cc1cc(-c2ccccc2)nn1-c1ccccc1	inactive
O=C(Nc1n[nH]c(C(F)(F)F)n1)C1CC1	inactive
CC(C)(C)C1CCC(=NNC(=O)c2cc3c(s2)CCCC3)CC1 (stereo not given)	inactive
Cc1ccc(C)n1-c1ccc(N2CCOCC2)cc1	inactive
Cc1ccc(-c2nc3c(c(=O)[nH]c(=O)n3Cc3ccccc3)n2C)o1	inactive
C(=C\c1ccccc1)/CSc1nnc(-c2ccccn2)n1Cc1ccco1	inactive
S=C1NC2=C(CCC/C2=C\c2ccccc2)C(c2ccccc2)N1 (stereo not given)	inactive
Cc1cccc(OCC(=O)NCC(=O)N/N=C/c2cc(Br)ccc2OCc2ccccc2)c1	inactive
COCCN=c1scc(-c2cccs2)n1/N=C/c1ccc(O)c(O)c1O	inactive
CCn1c(C)nc2cc(C(=O)N/N=C/c3ccc(O)c(O)c3O)ccc21	inactive
Cn1c(OCc2cccnc2)nc2c1c(=O)n(Cc1ccccc1)c(=O)n2C	inactive
COc1ccc2nc(NC(=O)c3ccc(-c4cccc([N+](=O)[O-])c4)o3)sc2c1	inactive
O=C(NCCCN1CCCC1=O)NC1CCCCC1	inactive
CCOC(=O)CSC1=NC(=O)/C(=C/c2ccc(OC)cc2)S1	inactive
S=C(Nc1ccc(N2CCOCC2)cc1)Nc1ccc2nc(-c3ccco3)c(-c3ccco3)nc2c1	inactive
CNC(=O)c1c(N)sc2c1CCCCC2	inactive
Cc1ccc(/C=N/N(C)C2=NS(=O)(=O)c3ccccc32)o1	inactive
COc1ccc2c3c(cccc13)N(C)N=C2C	inactive
O=C(CCl)Nc1cccc2ncccc12	inactive
CCOC(=O)c1ccc(NC(=O)CSCCC(=O)O)cc1	inactive
CNC(=S)N/N=C/C1=CCC2CC1C2(C)C (stereo not given)	inactive
COc1ccc(N2C(=O)C(Cl)=C(Nc3ccccc3O)C2=O)cc1	inactive

Structure (SMILES)	inhibition
Nc1c(C(=O)NCc2ccco2)sc2nc3c(cc12)C(=O)CCC3	inactive
COc1ccc(NC(=O)c2c(F)cccc2F)cc1S(=O)(=O)Nc1ccc(Br)cc1	inactive
Cc1ccc(-n2nc(C)c(C(=O)O)n2)c(C)c1	inactive
CCN1CCN(c2ccc(NC(=O)c3cccc4ncccc34)cc2)CC1	inactive
CN(C)c1ccc(/C=C2/SC(=O)N(CCN=C3NS(=O)(=O)c4ccccc43)C2=O)cc1	inactive
CCOC(=O)c1snc(-c2ccc(F)cc2)c1N	inactive
CCN1CCN(c2cc(C)c3cc(NC(=S)N4CCCCC4)ccc3n2)CC1	inactive
O=C(CSc1nnc(-c2cccs2)n1Cc1ccco1)c1ccc2c(c1)OCO2	inactive
COC(=O)c1ccc(C)c(NC(=O)CCNC(=O)c2ccc([N+](=O)[O-])cc2)c1	inactive
CN(CCO)c1cc(Sc2nc3ccccc3s2)c2nonc2c1[N+](=O)[O-]	inactive
CC(=O)OCCNc1cc(Sc2nc3ccccc3[nH]2)c2nonc2c1[N+](=O)[O-]	inactive
N=C1C(c2nc3ccccc3s2)=C(O)CN1Cc1ccccc1	inactive
CNc1ccc(Br)cc(C(=O)/C=C/c2cccc(OC)c2)c1=O	inactive
COCCn1nnnc1CN(Cc1ccco1)Cc1cc2cc3c(cc2[nH]c1=O)OCO3	inactive
COc1cc(OC)c([N+](=O)[O-])cc1/C=N/NC(=O)c1ccncc1	inactive
CCCc1nnc2n1N=C(c1ccc(-c3cc(Cl)ccc3Cl)o1)CS2	inactive
Cc1cccc(N2C(S)=C(C#N)C(=O)NC2c2cccs2)c1 (stereo not given)	inactive
COc1cc2[nH]c(=S)nc(NCCCOC(C)C)c2cc1OC	inactive
CCOC(=O)C1=C(Cc2ccc(C)cc2)C(=O)c2ccccc2C1=O	inactive
COc1cc(C=Nc2cccc(C)c2)c(O)c([N+](=O)[O-])c1	inactive
